Test results published in patent US10973748B2, “Compositions and methods for lightening skin and reducing hyperpigmentation” (Versitech Limited, priority 2016, dated 2021).

Key:
[1] = test system: microphthalmia-associated transcription factor (MITF); assay: Western blotting of MITF expression in melan-a cells; format: cell-based, murine; conditions: α-MSH, 72 hrs, 20 μM
Procedure: Melan-a cells (3×10^5 cells/well) were seeded in 4 mL of culture medium in a 6-well plate for at least 24 hrs prior to use. The cells were treated with α-MSH (1 μM) alone, α-MSH plus plus different concentration of agents for 72 hrs. The cells were washed with cold PBS and then lysed in 100 μL of RIPA buffer containing 1% Nonidet P-40, 0.1% sodium dodecylsulfate, 0.5% sodium deoxycholate, and 2% protease inhibitor at 4° C. Samples were centrifuged at 14,000 rpm for 30 mins at 4° C., and total proteins in the supernatant were separated. 10 μg of denatured proteins were loaded per lane, and separated by 10% SDS-PAGE gel. Proteins were then transferred to Immobilon-P Transfer Membranes (Millipore Co., Bed-ford, Mass.) by semidry transfer. Membranes were incubated with primary antibodies specific for Tyrosinase, tyrosinase-related protein-1 (TRP1), tyrosinase-related protein-2 (TRP2), and microphthalmia-associated transcription factor (MITF). The blots were subsequently washed and incubated with the appropriate secondary antibodies. Immunoreactive protein bands were visualized with enhanced chemiluminescence western blotting detection reagents and quantified using an ODYSSEY Fc Imaging system. The amounts of protein loaded were normalized against a control protein, β-actin.

[2] = test system: MelanoDerm (Mel-300-A) epidermal equivalents containing melanocytes; assay: Tissue viability of artificial skin model (CCK-8); format: cell-based, human; conditions: whole treatment period (14 days), rapamycin 2.5 μM, 6-CEPN 10 μM, 8-CEPQ 5 μM
Procedure: (§1) Epidermal equivalents containing melanocytes (Mel-300-A) were maintained according to the manufacturer's instructions. Mel-300-A tissue was cultured in EPI-100-NMM-113 medium for 14 days. Agents were dissolved in tissue culture medium and changed every other day. The test agents were either (1) rapamycin (2.5 μM), as the positive control in depigmentation, (2) 6-CEPN (10 μM), or (3) 8-CEPQ (5 μM). The concentration of rapamycin used was lower than 6-CEPN and 8-CEPQ, as rapamycin is toxic to cells at higher concentration. Pigmentation of these skin equivalents was compared against treatment of cells with a culture medium only (denoted as “vehicle”). Tissue viability was assessed on day 14 by CCK-8 assay as described in Example 1. On day 14, single tissues were harvested and photographed. The L* parameter was used to evaluate skin lightening or darkening. The lighter the skin, the greater the L* value. ΔL* value was measured by a Chroma Meter CR400 (Konica Minolta) for an evaluation of lightening as a function of time. Three tissues for each treatment were frozen for the Solvable Melanin assay (Bessou-Touya et al., “Chimeric human epidermal reconstructs to study the role of melanocytes and keratinocytes in pigmentation and photoprotection.” Journal of investigative dermatology 111(6):1103-1108 (1998)). Additional tissues were fixed by 10% formanin. For melanin staining in paraffin-embedded tissues, Fontana-Masson silver staining was used as previously detailed (Barbosa et al., “A simple and economical modification of the Masson-Fontana method for staining melanin granules and enterochromaffin cells.” Stain technology 59(4):193-196 (1984)).

[3] = test system: MelanoDerm (Mel-300-A) epidermal equivalents containing melanocytes; assay: Depigmentation in artificial skin model: brightness and L* value; format: cell-based, human; conditions: 6-CEPN 10 μM, 8-CEPQ 5 μM
Procedure: as §1

[4] = test system: melan-a cells; assay: Cellular melanin content (SRB combined assay); format: cell-based, murine; conditions: α-MSH, 72 hrs
Procedure: Murine melan-a cells (an immortalized, non-tumorigenic murine melanocyte cell line) were obtained from Chinese University of Hong Kong. Cells were cultured in RPMI 1640 medium. Culture medium was supplemented with 10% FBS and 1% penicillin-streptomycin and the cells were incubated at 37° C. in 5% CO2. […] The tested chemical agents (e.g., 6-CEPN and Kojic acid) were individually dissolved as a stock solution at a concentration of 100 mM in 100% dimethyl sulfoxide (DMSO). The stock solution was diluted using culture medium to the desired final concentrations immediately prior to use.
Melan-a cells (3×10^5 cells/well) were plated in 2 mL of 12-well multidishes for at least 24 hrs prior to use. […] Melanin content was measured using a sulphorhodamine B (SRB) combined assay (Lam R Y et al., J Ethnopharmacol, 132(1):274-9 (2010); Chinese patent application publication no. CN 104758191 A) to ensure any reduction in the melanin content was not due to the death of melan-a cells. As the colorimetric-based SRB assay could accurately estimate the number of viable cells, the melanin level was expressed as melanin content versus each single cell by taking into account the results of viable cells from the SRB assay. […] After a 72 h incubate, cell number was counted using SRB assay. […] The OD value was read at 595 nm. […]

O=C1C[C@@H](c2ccc(O)cc2)Oc2cc(O)c(/C=C/c3ccccc3)c(O)c21 [6-CEPN, 6-C-(E-phenylethenyl)-naringenin]
expression of MITF [1]: no clear inhibition | cytotoxicity (tissue viability) [2]: without significant cytotoxicity | brightness of the tissues (visual examination) ([3]; 14 days, rapamycin 2.5 μM): increased the brightness of the tissues | L* value vs negative control ([3]; day 14, rapamycin 2.5 μM): increased the L* value | depigmenting effects (in words) [4]: much stronger depigmenting effects than kojic acid | depigmentation ([4]; 20 μM): ~80%
